Experiments:
virus = experiment: Antiviral activity: cytopathic effect (CPE) inhibition in virus-inoculated Vero cells; type: cell-based; conditions: MIC, virus at 100 times TCID50, cultured 36 hours at 37°C, CPE observed microscopically
Protocol: By partly modifying the testing method reported in Antimicrobial Agents and Chemotherapy, 24(3), 353-361 (1983), antiviral activity was analyzed in the following manner. 200 µℓ of Eagle's minimum essential medium (with 10% fetal calf serum), in which Vero cells (product of Flow General Inc., marketed by Dainippon Pharmaceutical Co., Ltd., available from National Institute of Health) were suspended at the concentration of 3 x 10⁵ cells/mℓ, were cultured in a […] flat bottom plate. Subsequent to dense monolayer culture, the medium was removed and 90 µℓ of Eagle's minimum essential medium (with 3% fetal calf serum) containing a test compound were added. The tissue culture infections dosis 50% (TCID₅₀) had been determined in advance without addition of any drug. The above-prepared culture plate was inoculated with 10 µℓ of a virus solution whose concentration was 100 times higher than TCID₅₀ determined in advance. The cells were cultured for 36 hours at 37°C under 5% CO₂. The cytopathic effect (CPE) was microscopically observed, whereby the minimum virus growth inhibitory concentration (MIC) was determined.

Vero cells = experiment: Measurement of cytotoxicity by the MTT method; type: cell-based; conditions: cultured 72 hours, ID50 (growth of cells inhibited to 50%)
Protocol: Added to 100 µℓ of Eagle's minimum essential medium were 100 µℓ of Eagle's minimum essential medium (with 10% fetal calf serum), in which Vero cells were suspended at the concentration of 5 x 10⁴ cells/mℓ as well as a test compound. The resultant mixture was cultured for 72 hours in a […] flat bottom plate. The cytotoxicity of the test compound was then measured by the MTT measuring method reported in J. Immunol. Methods, 65, 55-63 (1983). The cytotoxicity is indicated in terms of the concentration (ID₅₀) which inhibited the growth of cells to 50%.

Row | SMILES | Minimum virus growth inhibitory concen. (virus) [µg/mL] | 50% cell growth inhibitory concentration (ID50) (Vero cells) [µg/mL]
1 | CC(O)C1=C[C@@H](n2cnc3c(N)nccc32)[C@H](O)[C@@H]1O (single isomer, unassigned) [6'-c-Methyl-3-deazaneplanocin A, 6'-C-Methyl-3-deazaneplanocin A] | 1.0 | 12.4
2 | Nc1nccc2c1ncn2[C@@H]1C=C(CO)[C@@H](O)[C@H]1O [3-Deazaneplanosin A, 3-deazaneplanocin A] | 0.24 | –
3 | Nc1ncnc2c1ncn2[C@@H]1C=C(CO)[C@@H](O)[C@H]1O [Neplanocin A] | 0.24 | –

— patent EP0510260A2, “6'-C-alkyl-3-deazaneplanocin A derivative and its preparation process and use” (ASAHI KASEI KOGYO KABUSHIKI KAISHA, priority 1991, dated 1992)
